Reference: publication PMC7031696 (Cell chemical biology, 2019)

Tested on: 3D7-MR4 trophozoite parasite-infected RBCs
Assay: Metabolomic profiling (hydrophilic metabolite changes, UHPLC-MS)
Format: cell-based, Plasmodium falciparum

CC(C)(C)NCc1cc(Nc2ccnc3cc(Cl)ccc23)c2c(c1O)CCCC2 [Naphtoquine, Naphthoquine, reference compound]
changes within the set of metabolites detected (low fold change group) (10 × IC50^72h, 2.5 hr, trophozoites): did not induce major changes
Log2(fold changes) 1_3-Bisphosphoglyceric acid (metabolite 1_3-Bisphosphoglyceric acid, log2 fold change): 0.0605
Log2(fold changes) 2-Hydroxy-2-methylbutanedioic acid (metabolite 2-Hydroxy-2-methylbutanedioic acid, log2 fold change): 0.0920
Log2(fold changes) 2-Isopropylmalic acid (metabolite 2-Isopropylmalic acid, log2 fold change): 0.0000
Log2(fold changes) 2-dehydro-D-gluconate (metabolite 2-dehydro-D-gluconate, log2 fold change): -0.0605
Log2(fold changes) 2-oxo-4-methylthiobutanoate (metabolite 2-oxo-4-methylthiobutanoate, log2 fold change): 0.0000
Log2(fold changes) 2_3-Diphosphoglyceric acid (metabolite 2_3-Diphosphoglyceric acid, log2 fold change): 0.0000
Log2(fold changes) 3-phosphoglycerate (metabolite 3-phosphoglycerate, log2 fold change): 0.2077
Log2(fold changes) 3-phosphoserine (metabolite 3-phosphoserine, log2 fold change): -0.0700
Log2(fold changes) 4-Pyridoxic acid (metabolite 4-Pyridoxic acid, log2 fold change): 0.2073
Log2(fold changes) 4-aminobutyrate (metabolite 4-aminobutyrate, log2 fold change): 0.0263
Log2(fold changes) 4-phosphopantetheine (metabolite 4-phosphopantetheine, log2 fold change): 0.0000
Log2(fold changes) 4-phosphopantothenate (metabolite 4-phosphopantothenate, log2 fold change): -0.0475
Log2(fold changes) 5-aminopentanoic acid (metabolite 5-aminopentanoic acid, log2 fold change): 0.0000
Log2(fold changes) 5-methyl-THF (metabolite 5-methyl-THF, log2 fold change): 0.0000
Log2(fold changes) 5-phosphoribosyl-1-pyrophosphate (metabolite 5-phosphoribosyl-1-pyrophosphate, log2 fold change): 0.0000
Log2(fold changes) 6-phospho-D-gluconate (metabolite 6-phospho-D-gluconate, log2 fold change): 0.1085
Log2(fold changes) ADP-D-glucose (metabolite ADP-D-glucose, log2 fold change): 0.0398
Log2(fold changes) Acetyl-glycine (metabolite Acetyl-glycine, log2 fold change): 0.0000
Log2(fold changes) Acetyllysine (metabolite Acetyllysine, log2 fold change): -0.1423
Log2(fold changes) Aminoadipic acid (metabolite Aminoadipic acid, log2 fold change): 0.0000
Log2(fold changes) CDP (metabolite CDP, log2 fold change): -0.5923
Log2(fold changes) CDP-choline (metabolite CDP-choline, log2 fold change): -0.0652
Log2(fold changes) CDP-ethanolamine (metabolite CDP-ethanolamine, log2 fold change): -0.0101
Log2(fold change) of CMP (metabolite CMP): -0.1194
Log2(fold change) of CTP (metabolite CTP): 0.1369
Log2(fold changes) Citraconic acid (metabolite Citraconic acid, log2 fold change): 0.0000
Log2(fold change) of D-glucarate (metabolite D-glucarate): 0.1211
Log2(fold change) of D-gluconate (metabolite D-gluconate): 0.1168
Log2(fold change) of D-glucosamine-1/6-phosphate (metabolite D-glucosamine-1/6-phosphate): 0.0000
Log2(fold change) of D-sedoheptulose-1/7-phosphate (metabolite D-sedoheptulose-1/7-phosphate): -0.1410
Log2(fold change) of DL-Pipecolic Acid (metabolite DL-Pipecolic Acid): 0.1435
Log2(fold change) of DLH (metabolite DLH): 0.3114
Log2(fold change) of DLS (metabolite DLS): 0.0979
Log2(fold change) of Decanoyl-CoA (metabolite Decanoyl-CoA): 0.0000
Log2(fold change) of EV (metabolite EV): -0.1292
Log2(fold change) of FAD (metabolite FAD): 0.0352
Log2(fold change) of FMN (metabolite FMN): 0.1758
Log2(fold change) of G3P/DHAP (metabolite G3P/DHAP): 0.0000
Log2(fold change) of GDP (metabolite GDP): -0.5345
Log2(fold change) GMP (metabolite GMP): 0.0470
Log2(fold change) GTP (metabolite GTP): 0.0942
Log2(fold change) HVDD (metabolite HVDD): 0.0000
Log2(fold change) Hexose (metabolite Hexose): 0.0000
Log2(fold change) Hydroxyisocaproic acid (metabolite Hydroxyisocaproic acid): 0.0000
Log2(fold change) IDP (metabolite IDP): 0.0737
Log2(fold change) IMP (metabolite IMP): -0.0394
Log2(fold change) Inositol (metabolite Inositol): 0.0000
Log2(fold change) Isopentyl-PP (metabolite Isopentyl-PP): 0.0000
Log2(fold change) L-arginino-succinate (metabolite L-arginino-succinate): -0.0233
Log2(fold change) LD (metabolite LD): 0.1467
Log2(fold change) Myristoyl/tetradecanoyl-CoA (metabolite Myristoyl/tetradecanoyl-CoA): 0.0252
Log2(fold change) N-Acetyl-L-alanine (metabolite N-Acetyl-L-alanine): 0.1261
Log2(fold change) N-acetyl-L-ornithine (metabolite N-acetyl-L-ornithine): -0.0214
Log2(fold change) N-acetyl-glucosamine-1/6-phosphate (metabolite N-acetyl-glucosamine-1/6-phosphate): 0.0000
Log2(fold change) N-acetyl-glutamate (metabolite N-acetyl-glutamate): 0.0412
Log2(fold change) N-acetyl-glutamine (metabolite N-acetyl-glutamine): 0.0000
Log2(fold change) N-carbamoyl-L-aspartate (metabolite N-carbamoyl-L-aspartate): 0.0625
Log2(fold change) NAD+ (metabolite NAD+): -0.0154
Log2(fold change) NADH (metabolite NADH): 0.0000
Log2(fold change) NADP+ (metabolite NADP+): 0.0692
Log2(fold change) NADPH (metabolite NADPH): -0.1981
Log2(fold change) O-acetyl-L-serine (metabolite O-acetyl-L-serine): 0.0000
Log2(fold change) Octoluse 8/1P (metabolite Octoluse 8/1P): -0.0241
Log2(fold change) Octoluse Bisphosphate (metabolite Octoluse Bisphosphate): 0.0717
Log2(fold change) PD (metabolite PD): 0.0223
Log2(fold change) PE (metabolite PE): 0.1349
Log2(fold change) PEE (metabolite PEE): 0.2438
Log2(fold change) PEEK (metabolite PEEK): 0.3424
Log2(fold change) PVNF (metabolite PVNF): 0.2854
Log2(fold change) Pyroglutamic acid (metabolite Pyroglutamic acid): -0.2488
Log2(fold change) Pyrophosphate (metabolite Pyrophosphate): 0.0000
Log2(fold change) Ribose-5-phosphate (metabolite Ribose-5-phosphate): 0.1278
Log2(fold change) S-adenosyl-L-homocysteine (metabolite S-adenosyl-L-homocysteine): -0.2617
Log2(fold change) S-adenosyl-L-methioninamine (metabolite S-adenosyl-L-methioninamine): 0.0000
Log2(fold change) S-adenosyl-L-methionine (metabolite S-adenosyl-L-methionine): 0.0000
Log2(fold change) S-methyl-5'-thioadenosine (metabolite S-methyl-5'-thioadenosine): 0.0070
Log2(fold change) SD (metabolite SD): 0.1296
Log2(fold change) SDL (metabolite SDL): 0.0391
Log2(fold change) SID (metabolite SID): 0.2783
Log2(fold change) Sedoheptulose bisphosphate (metabolite Sedoheptulose bisphosphate): 0.1433
Log2(fold change) Thiamine pyrophosphate (metabolite Thiamine pyrophosphate): 0.0526
Log2(fold changes) UDP-D-glucose (metabolite UDP-D-glucose, log2 fold change): 0.0961
Log2(fold changes) UDP-D-glucuronate (metabolite UDP-D-glucuronate, log2 fold change): 0.1278
Log2(fold changes) UDP-N-acetyl-glucosamine (metabolite UDP-N-acetyl-glucosamine, log2 fold change): 0.0189
Log2(fold changes) UDP (metabolite UDP, log2 fold change): -0.6136
Log2(fold changes) UMP (metabolite UMP, log2 fold change): -0.1186
Log2(fold changes) UTP (metabolite UTP, log2 fold change): 0.1051
Log2(fold changes) VD (metabolite VD, log2 fold change): 0.0754
Log2(fold changes) Xanthurenic acid (metabolite Xanthurenic acid, log2 fold change): 0.0000
Log2(fold changes) a-ketoglutarate (metabolite a-ketoglutarate, log2 fold change): 0.1610
Log2(fold changes) acetyl-CoA (metabolite acetyl-CoA, log2 fold change): 0.1670
Log2(fold changes) acetyl-aspartate (metabolite acetyl-aspartate, log2 fold change): 0.0000
Log2(fold changes) acetylphosphate (metabolite acetylphosphate, log2 fold change): 0.0000
Log2(fold changes) aconitate (metabolite aconitate, log2 fold change): 0.1208
Log2(fold changes) adenine (metabolite adenine, log2 fold change): 0.0000
Log2(fold changes) adenosine 5'-phosphosulfate (metabolite adenosine 5'-phosphosulfate, log2 fold change): 0.0000
